Test [1] deals with T1, αSYN fibrils (Homo sapiens, UniProt P37840). Nature of the test: [3H]PiB competition binding assay on αSYN fibrils. On the procedure:
(§1) Concentrations of αSYN and Aβ1-42 fibrils were as described above.
Plates were incubated on a shaker (MaxQ 6000, Thermo Fisher Scientific Inc., Marietta, OH, USA) at 50 rpm for 2 hours at 37°C, covered by removable sealing tapes (PerkinElmer, Waltham, MA, USA). […] Data points were fitted using non-linear regression analysis in GraphPad Prism (GraphPad Software, Inc., Version 8.4.0, La Jolla, USA).

The target in test [2] is T1, αSYN fibrils. As to the kind of experiment: [3H]MODAG-001 competition binding assay on αSYN fibrils. The settings on record: for Ki: competition with [3H]MODAG-001, αSYN fibrils. As for the experimental part: as §1
(§2) Plates were incubated on a shaker (MaxQ 6000, Thermo Fisher Scientific Inc., Marietta, OH, USA) at 50 rpm for 2 hours at 37°C, covered by removable sealing tapes (PerkinElmer, Waltham, MA, USA). Vacuum filtration and read-out were performed as disclosed in Kuebler, L. et al., [11C]MODAG-001-towards a PET tracer targeting α-synuclein aggregates; European Journal of Nuclear Medicine and Molecular Imaging 2020, 48, 1759-1772. […] Data points were fitted using non-linear regression analysis in GraphPad Prism (GraphPad Software, Inc., Version 8.4.0, La Jolla, USA).

Test [3] addresses T2, Aβ1-42 fibrils (Homo sapiens, UniProt P05067).
T2 construct: Synthetic lyophilized human Aβ1-42 peptide; purchased EMC Microcollections, Tuebingen, Germany; host or cells: chemical synthesis
Nature of the test: [3H]PiB competition binding assay on Aβ fibrils. The settings on record: for binding to Aβ fibrils (competition with [3H]PiB): [3H]PiB competition on Aβ fibrils.
Excerpt: The method for Aβ1-42 fibrils generation was adapted from Bagchi, D. P. et al., Binding of the radioligand SIL23 to alpha-synuclein fibrils in Parkinson disease brain tissue establishes feasibility and screening approaches for developing a Parkinson disease imaging agent; PLoS One 2013, 8 (2), e55031, and described in Kuebler, L. et al., [11C]MODAG-001-towards a PET tracer targeting α-synuclein aggregates; European Journal of Nuclear Medicine and Molecular Imaging 2020, 48, 1759-1772. Synthetic lyophilized human Aβ1-42 peptide (5 mg) with >90 % purity (EMC Microcollections, Tuebingen, Germany) was dissolved in DMSO (221.5 µL), followed by the addition of deionized water (4.1 mL) and 1 M Tris-HCl (111 µL, pH 7.6) to reach a final monomeric concentration of 250 µM. Aggregation was induced by incubation in Eppendorf Thermomixer at 37°C with shaking at 800 rpm for 72 hours. The resulted fibrils were sonicated for 3 min in a water bath (Elmasonic S 60 H, Elma Schmidbauer GmbH, Singen, Germany). The final products were aliquoted, frozen on dry ice, and stored at -80°C until use.
as §1, §2

Setting [4] is: [3H]PiB competition, αSYN fibrils, mean Ki ± SEM, two data points (9a, 14a, 15a, 17a, 18a, 43, 44, MFSB three; 12a single), read-out: Ki.

T2 sequence (P05067 672-713 limits assumed): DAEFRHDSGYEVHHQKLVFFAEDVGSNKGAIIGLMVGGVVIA

What is called Ki is a dissociation constant, usually derived from enzyme kinetics or from competition with a known ligand. Regarding `Fc1ccc2nc(C=Cc3ccc(N4CCCCC4)cc3)sc2c1` (mixture of isomers) [9a, 6-fluoro-2-(4-(piperidin-1-yl)styryl)benzo[d]thiazole], the inhibition constant Ki was 25.4 ± 2.3 nM in test [1] (setting [4]) and 142 ± 16.9 nM in test [2].

Consider `Cc1cccc2sc(C=Cc3ccc(N4CCCCC4)cc3)nc12` [1a, 4-methyl-2-(4-(piperidin-1-yl)styryl)benzo[d]thiazole], for which the Ki in test [1] (read-out: Ki) is 135 ± 63.5 nM.

In test [1], `Cc1cccc2sc(/C=C/c3ccc(N4CCCCC4)cc3)[n+](C)c12` [1b, 3,4-dimethyl-2-(4-(piperidin-1-yl)styryl)benzo[d]thiazol-3-ium 4-nitrobenzenesulfonate] registered a Ki of 60 ± 23.9 nM.

Consider `COc1cccc2sc(C=Cc3ccc(N4CCCCC4)cc3)[n+](C)c12` [2b, 4-methoxy-3-methyl-2-(4-(piperidin-1-yl)styryl)benzo[d]thiazol-3-ium iodide], for which the Ki in test [1] (read-out: Ki) was found to be 52.6 ± 18.3 nM.

As for `Fc1cccc2sc(C=Cc3ccc(N4CCCCC4)cc3)nc12` [3a, 4-fluoro-2-(4-(piperidin-1-yl)styryl)benzo[d]thiazole], the Ki in test [1] (read-out: Ki) worked out at 149 ± 38 nM.

`Cc1ccc2sc(C=Cc3ccc(N4CCCCC4)cc3)nc2c1` [4a, 5-methyl-2-(4-(piperidin-1-yl)styryl)benzo[d]thiazole]: in test [1] (read-out: Ki), the Ki was found to be 161 ± 72.7 nM.

Regarding `Cc1ccc2sc(C=Cc3ccc(N4CCCCC4)cc3)[n+](C)c2c1` [4b, 3,5-dimethyl-2-(4-(piperidin-1-yl)styryl)benzo[d]thiazol-3-ium iodide], the Ki in test [1] (read-out: Ki) came to 72.2 ± 12.4 nM.

Consider `COc1ccc2sc(C=Cc3ccc(N4CCCCC4)cc3)nc2c1` [5a, 5-methoxy-2-(4-(piperidin-1-yl)styryl)benzo[d]thiazole], for which the Ki in test [1] (read-out: Ki) is 158 ± 29.7 nM.

Regarding `COc1ccc2sc(C=Cc3ccc(N4CCCCC4)cc3)[n+](C)c2c1` [5b, 5-methoxy-3-methyl-2-(4-(piperidin-1-yl)styryl)benzo[d]thiazol-3-ium iodide], in test [1] (read-out: Ki), the Ki was found to be 95.2 ± 67.7 nM.

As to `Fc1ccc2sc(C=Cc3ccc(N4CCCCC4)cc3)nc2c1` [6a, 5-fluoro-2-(4-(piperidin-1-yl)styryl)benzo[d]thiazole], the Ki in test [1] (read-out: Ki) amounted to 147 ± 22.3 nM.

Take `C[n+]1c(C=Cc2ccc(N3CCCCC3)cc2)sc2ccc(F)cc21` [6b, 5-fluoro-3-methyl-2-(4-(piperidin-1-yl)styryl)benzo[d]thiazol-3-ium iodide]: the Ki in test [1] (read-out: Ki) came to 352 ± 83.5 nM.

Turning to `Cc1ccc2nc(C=Cc3ccc(N4CCCCC4)cc3)sc2c1` [7a, 6-methyl-2-(4-(piperidin-1-yl)styryl)benzo[d]thiazole], the Ki in test [1] (read-out: Ki) came out at 224 ± 6.1 nM.

Regarding `Cc1ccc2c(c1)sc(C=Cc1ccc(N3CCCCC3)cc1)[n+]2C` [7b, 3,6-dimethyl-2-(4-(piperidin-1-yl)styryl)benzo[d]thiazol-3-ium iodide], in test [1] (read-out: Ki), the Ki turned out to be 20.3 ± 3.5 nM.

As to `COc1ccc2nc(C=Cc3ccc(N4CCCCC4)cc3)sc2c1` [8a, 6-methoxy-2-(4-(piperidin-1-yl)styryl)benzo[d]thiazole], the Ki in test [1] (read-out: Ki) amounted to 106 ± 3.6 nM.

On to `COc1ccc2c(c1)sc(C=Cc1ccc(N3CCCCC3)cc1)[n+]2C` [8b, 6-methoxy-3-methyl-2-(4-(piperidin-1-yl)styryl)benzo[d]thiazol-3-ium iodide], for which the Ki in test [1] (read-out: Ki) was 14.7 ± 5.1 nM.

For `C[n+]1c(C=Cc2ccc(N3CCCCC3)cc2)sc2cc(F)ccc21` [9b, 6-fluoro-3-methyl-2-(4-(piperidin-1-yl)styryl)benzo[d]thiazol-3-ium iodide], the inhibition constant (Ki) in test [1] (read-out: Ki) was 189 ± 146 nM.

Take `Cc1cccc2c1sc(C=Cc1ccc(N3CCCCC3)cc1)[n+]2C` [10b, 3,7-dimethyl-2-(4-(piperidin-1-yl)styryl)benzo[d]thiazol-3-ium iodide]: the Ki in test [1] (read-out: Ki) is 148 ± 83.7 nM.

`COc1cccc2c1sc(C=Cc1ccc(N3CCCCC3)cc1)[n+]2C` [11b, 7-methoxy-3-methyl-2-(4-(piperidin-1-yl)styryl)benzo[d]thiazol-3-ium iodide]: in test [1] (read-out: Ki), the Ki is 206 ± 28.2 nM.

Turning to `Fc1cccc2nc(C=Cc3ccc(N4CCCCC4)cc3)sc12` [12a, 7-fluoro-2-(4-(piperidin-1-yl)styryl)benzo[d]thiazole], the inhibition constant Ki in test [1] (setting [4]) turned out to be 283 nM.

`c1ccc2sc(-c3ccc(N4CCCCC4)cc3)nc2c1` [13a, 2-(4-(piperidin-1-yl)phenyl)benzo[d]thiazole]: the Ki in test [1] (read-out: Ki) came out at 73.3 ± 61.2 nM.

Regarding `C(C=Cc1nc2ccccc2s1)=Cc1ccc(N2CCCCC2)cc1` [14a, 2-(4-(4-(piperidin-1-yl)phenyl)buta-1,3-dien-1-yl)benzo[d]thiazole], the Ki in test [1] (setting [4]) amounted to 81.9 ± 15.6 nM.

With `C[n+]1c(C=CC=Cc2ccc(N3CCCCC3)cc2)sc2ccccc21` [14b, 3-methyl-2-(4-(4-(piperidin-1-yl)phenyl)buta-1,3-dien-1-yl)benzo[d]thiazol-3-ium iodide], the inhibition constant Ki in test [1] (read-out: Ki) was found to be 19.9 ± 3.1 nM.

As for `C(=Cc1nc2ccccc2s1)c1ccc(N2CCOCC2)cc1` [15a, 4-(4-(2-(benzo[d]thiazol-2-yl)vinyl)phenyl)morpholine], the inhibitory constant (Ki) in test [1] (setting [4]) amounted to 92 ± 30.3 nM.

Regarding `C(=Cc1nc2ccccc2s1)c1ccc(N2CCSCC2)cc1` [16a, 2-(4-thiomorpholinostyryl)benzo[d]thiazole], the Ki in test [1] (read-out: Ki) came out at 139 ± 80.2 nM.

As to `C(=Cc1nc2ccccc2s1)c1ccc(N2CCCC2)cc1` [17a, 2-(4-(pyrrolidin-1-yl)styryl)benzo[d]thiazole], the Ki in test [1] (setting [4]) came to 73.4 ± 19 nM.

On to `C[n+]1c(C=Cc2ccc(N3CCCC3)cc2)sc2ccccc21` [17b, 3-methyl-2-(4-(pyrrolidin-1-yl)styryl)benzo[d]thiazol-3-ium iodide], for which the Ki in test [1] (read-out: Ki) was 102 ± 43 nM.

Consider `FC1CCN(c2ccc(C=Cc3nc4ccccc4s3)cc2)CC1` [18a, 2-(4-(4-fluoropiperidin-1-yl)styryl)benzo[d]thiazole], for which the Ki in test [1] (setting [4]) turned out to be 99.8 ± 32.6 nM.

As for `C(=Cc1nc2ccccc2s1)c1ccc(N2CCCCC2)cc1` [compound 20, 2-(4-(piperidin-1-yl)styryl)benzo[d]thiazole], the Ki in test [1] (read-out: Ki) amounted to 102 ± 68.5 nM.

`Fc1ccc2nc(C=CC=Cc3ccc(N4CCCCC4)cc3)sc2c1` [compound 43, 6-fluoro-2-(4-(4-(piperidin-1-yl)phenyl)buta-1,3-dien-1-yl)benzo[d]thiazole]: the Ki in test [1] (setting [4]) stood at 214 ± 122 nM. Further, the “binding to Aβ fibrils (competition with [3H]PiB)” value in test [3] is given as “low”.

`Fc1ccc2nc(C=CC=Cc3ccc(N4CCCC4)cc3)sc2c1` [compound 44, 6-fluoro-2-(4-(4-(pyrrolidin-1-yl)phenyl)buta-1,3-dien-1-yl)benzo[d]thiazole]: the Ki in test [1] (setting [4]) was 85 ± 41 nM. For the same compound, the “binding to Aβ fibrils (competition with [3H]PiB)” value in test [3] is “low”.

In the case of `Fc1ccc2nc(C=Cc3ccc(N4CCOCC4)cc3)sc2c1` [compound 45, 4-(4-(2-(6-fluorobenzo[d]thiazol-2-yl)vinyl)phenyl)morpholine], the “affinity improved by factor compared to PFSB” value in test [1] ([3H]PiB competition, αSYN fibrils, MFSB vs PFSB) is 2.5. Further, the values for the Ki in test [1] (setting [4]) and in test [2] were 10.3 ± 4.7 nM and 30.8 ± 10.5 nM, respectively. Further, the “selectivity towards αSYN over Aβ” value in test [3] (from [3H]PiB competition on αSYN and Aβ fibrils) was “remained unchanged”. The “fold lower Ki than PFSB” value in test [2] ([3H]MODAG-001 competition, MFSB vs PFSB) stood at 4.6 fold.

These data come from EP4438597A1, “2-STYRYLBENZOTHIAZOLE DERIVATIVES AS A-SYNUCLEIN BINDING COMPOUNDS” (Eberhard Karls Universität Tübingen Medizinische Fakultät, priority 2023, dated 2024).
